We go through nine compounds from patent US20230167068A1, “BENZOPYRAZOLE COMPOUND” (MEDSHINE DISCOVERY INC., priority 2019, published 2023).

Common to all, as to assay type: cell-based
The subject of assay [1] is MMTV promoter luciferase reporter in HeLa cell line (GR transcription activation). As to the kind of experiment: MMTV transcription activation activity, luciferase reporter gene screening system (MMTV_GR transcription activation experiment). Conditions: Homo sapiens; for Emax: HeLa, maximum effect value, positive control 1000 nM dexamethasone, read-out: TA (MMTV transcription activation activity) Effect; for EC50: absolute EC50, HeLa MMTV-luciferase cells, 18 h, max concentration 1000 nM, read-out: TA (MMTV transcription activation activity) EC50. From the text:
The promoter of mouse mammary tumor virus (MMTV) contains specific binding sites for activating GRs (GREs). To determine the activity of the compounds, a reporter gene (luciferase) was inserted after the MMTV promoter, and this construct was expressed in a stable manner in the genome of the HeLa cell line. MMTV promoter was activated by the test compounds to induce the expression of luciferase, and its activity was detected by luminescence measurement.
• [0442] 1) All the culture media were carefully aspirated, the cell layer was rinsed gently with an appropriate amount of DPBS, and then aspirated. • [0443] 2) An appropriate amount of 0.05% Typsine EDTA was added and incubated in a CO2 incubator for 3-5 minutes to digest the cells. • [0444] 3) The cells were resuspended with an appropriate amount of cell culture medium. • [0445] 4) The amount of cells required was calculated, and the cell concentration was 4×10^3 cells/well. • [0446] 5) The cell suspension was diluted with appropriate cell culture medium. • [0447] 6) Cell suspension was dispensed into a disposable sterile loading slot. • [0448] 7) Inoculated 30 µL per well into a 384-well plate. • [0449] 8) The cell plate was placed in a 37° C. 5% CO2 incubator for 18-24 hours.
Compounds were diluted with DMSO to 1 mM, 0.25 mM, 0.0625 mM, 0.015625 mM, 0.0039 mM, 0.0009765 mM, 0.000244 mM, 0.000061 mM, 0.00001526 mM and 0.0000038125 mM, then diluted 25-fold with serum culture medium treated with activated carbon, and finally 4x concentration compound experimental plate was obtained, prepared before use.
The final DMSO experimental concentration was 0.1%.
MMTV_GR transcription activation activity experiment • [0458] 1) Inoculated cells: Fresh cells were inoculated into 384 white transparent bottom experimental plates at 4×10^3 cells/30 µL/well, and incubated at 37° C. 5% CO2 incubator for 24 hours. • [0459] 2) Compound preparation: The compound plate was prepared before the experiment, and the reference compound (dexamethasone) and the test compound of 4x concentration were prepared. Finally, the experimental plate of 4x concentration compound was obtained. • [0460] 3) Added compound: 10 µL of 4x compound was transferred with Bravo and added to cell plate. Incubated for 18 hours in a 37° C. 5% CO2 incubator. • [0461] 4) 30 µL of Bright-Glo fluorescent detection reagent was transferred to the cell plate. • [0462] 5) Centrifugal incubation for 2 minutes. • [0463] 6) The fluorescence value was measured with the Envision plate reader.
Positive control: 1000 nM dexamethasone (0.1% DMSO)
Negative control: 0.1% DMSO
(§1) Test compound: Maximum concentration of 1000 nM, 4-fold dilution, 10 wells in total, repeated.
(§2) Dexamethasone: Maximum concentration of 1000 nM, 4-fold dilution, 10 wells in total, repeated.
The graphing software GraphPad Prism5 was used to create the concentration curves of the tested compounds and calculate the IC50 values.
Background: In a reporter assay the amount or activity of a reporter protein is the signal.

Assay [2] relates to human peripheral blood mononuclear cells TNF-α. The experiment in a line: Repression of TNF-α in human peripheral blood mononuclear cells (LPS, ELISA). Conditions: PBMC, 3-fold diluted, 8 concentration (*). The method, then:
Experimental purpose: To express the anti-inflammatory activity of the test compound at the cellular level according to the level of TNF-α in human peripheral blood mononuclear cells (hPBMC).
• [0488] 1) The frozen cells were quickly thawed by continuous stirring in a 37° C. water bath. • [0489] 2) 25 mL of fresh pre-heated thawed culture medium was added to a 50 mL centrifuge tube. Then the cells were added gently, drop by drop. • [0490] 3) Cells were centrifuged at 2000 rpm for 10 min (ascending speed: 9, descending speed: 1). • [0491] 4) The supernatant was discarded and the cell particles were resuspended in 25 mL of freshly pre-heated RPMI 1640 culture medium.
• [0493] 5) After thawing and resuscitating the suspended cells, the number of cells was counted and the total number of cells required for the experiment was calculated. • [0494] 6) The cell suspension was diluted with an appropriate volume of cell culture medium. • [0495] 7) The cell suspension was poured into a sterile disposable container. • [0496] 8) 100,000 cells/(100 µL) of cell suspension was transferred to each well of a 96-well plate. • [0497] 9) The cell plates were placed in humidified air, 5% CO2 incubator, 37° C. for 2 hours.
[…] In the second step, the serum-free culture medium was diluted 125 times, and the concentration of DMSO was 0.8%. Then 16.8 µL of the compound diluted in culture medium was transferred to a 100 µL cell plate, and the concentration of DMSO was 0.114%.
After adding the compound, the cell plates were incubated in a 37° C. 5% CO2 incubator for 1 hour.
In the first step, LPS was diluted with ultrapure water to a storage concentration of 1 mg/mL. In the second step, the storage concentration of LPS was diluted to 1 µg/mL in serum-free culture medium. In the third step, serum-free culture medium was 1666.666-fold diluted. Then 16.8 µL of LPS that has been diluted with culture medium was transferred to a 116.8 µL cell plate. At this time, the final concentration of DMSO was 0.1%. After adding LPS, the cell plate was put into a 37° C., 5% CO2 incubator and incubated for 18 hours.
• [0505] 1. The TNF-α antibody was diluted to 1× in the coating solution, and then 100 µL per well was added to a 96-well high-binding performance plate, and the plate was sealed with a membrane and placed at 4° C. for 18 hours. • [0506] 2. 2000 mL of wash buffer was prepared to 1x for later use.
• [0508] 3. After the plate was coated overnight, the coating solution was poured out and washed 3 times with 300 µL of washing buffer per well. • [0509] 4. After the plate was washed, 200 µL of sealing buffer was added to each well, and the plate was sealed with membrane. Incubated for one hour in a 25° C. incubator. • [0510] 5. The cell plates incubated for 18 hours were placed in a centrifuge for centrifugation, temperature: 25° C., speed: 2000 rpm, time: 10 min, ascending speed: 9, descending speed: 1. After centrifugation, 100 µL of cell supernatant from each well was transferred to a 3599 cell plate, and then placed in a 4° C. refrigerator for later use. • [0511] 6. The cell supernatant was diluted 40 times with sealing buffer and placed in a 4° C. refrigerator for later use, and the standard was also placed in a 4° C. refrigerator for later use. • [0512] 7. After the sealing was completed, the sealing solution was poured out and washed three times with 300 µL of washing buffer per well. • [0513] 8. The diluted cell supernatant samples and standards were added to the ELISA plate, and the plate was sealed with membrane. Then incubated for 2 hours in a 25° C. incubator. • [0514] 9. The liquid in the plate was poured out and washed 5 times with 300 µL of washing buffer per well. • [0515] 10. Antibodies were prepared and 100 µL was added to each well and the plate was sealed with sealing membrane. Then incubated for one hour in a 25° C. incubator. • [0516] 11. The liquid in the plate was poured out and washed 7 times with 300 µL of washing buffer per well. • [0517] 12. […]
For orientation: An ELISA detects its analyte on a solid surface through an enzyme-linked reagent.

The subject of assay [3] is hMMP-1 promoter reporter gene in Hela cells (GR transcription repression). As to the kind of experiment: hMMP1 transcription repression activity, luciferase reporter gene screening system (hMMP1 GR transcription repression test). Conditions: Homo sapiens; for Emax: HeLa, maximum effect value, positive control 1000 nM dexamethasone, read-out: TR (hMMP1 transcription inhibition activity) Effect; for IC50: absolute IC50, HeLa hMMP-1/luciferase cells, 10 nM PMA, 18 h, max concentration 1000 nM, read-out: TR (hMMP1 transcription inhibition activity) IC50.
Source text: Human MMP-1 promoter region (containing two AP-1 binding sites and two PEA3 sites, a total of 249bp, GenBank catalog #AF023338) was cloned into the upstream of luciferase reporter gene. The hMMP-1 promoter reporter gene was constructed and transfected into Hela cells so that luciferase production could be easily detected. A stable recombinant hMMP-⅟luciferase cell line was used for the development and validation of this experiment.
• [0377] 1) All the culture media were carefully aspirated, and the cell layer was rinsed gently with an appropriate amount of DPBS, and then aspirated. • [0378] 2) An appropriate amount of 0.05% Typsine EDTA was added and incubated in a CO2 incubator for 3-5 minutes to digest the cells. • [0379] 3) The cells were resuspended with an appropriate amount of cell culture medium. • [0380] 4) The required amount of cells were calculated. The cell concentration was 5x10^3 cells/well. • [0381] 5) The cell suspension was diluted with appropriate cell culture medium. • [0382] 6) The cell suspension was dispensed into a disposable sterile loading slot. • [0383] 7) Inoculated 30µL per well into a 384-well plate. • [0384] 8) The cell plate was placed in a 37° C. 5% CO2 incubator for 18-24 hours.
The final DMSO concentration was 0.1%. PMA needs to be protected from light during use.
hMMP1 GR transcription repression activity test • [0395] 1) Inoculated cells: Fresh cells were inoculated into 384 white experimental plates at 5x10^3 cells/30µL/well, and incubated in a 5% CO2 incubator at 37° C. for 24 hours. • [0396] 2) Compound preparation: The compound plate was prepared before the experiment, and the reference compound (dexamethasone) and the tested compound of 10x concentration were prepared. Finally, the experimental plate of 10× concentration compound was obtained. • [0397] 3) Added compound: 3.3 µL of 10x compound was transferred with Bravo and added to cell plate. Incubated for 18 hours in a 5% CO2 incubator at 37° C. • [0398] 4) 30 µL of Bright-Glo fluorescent detection reagent was transferred to the cell plate. • [0399] 5) Centrifugal incubation for 2 minutes. • [0400] 6) The fluorescence value was measured with the Envision plate reader.
Positive Control: 10 nM PMA + 1000 nM dexamethasone (0.1% DMSO)
Negative control: 10 nM PMA (0.1% DMSO)
as §1, §2
The graphing software GraphPad Prism5 was used to create the concentration curves of the test compounds and calculate the IC50 values.

In general, EC50 refers to the concentration giving half of the maximal effect. On to `C[C@H](NC(=O)C(C)(F)F)[C@H](Oc1ccc2c(cnn2-c2ccc3nccn3c2)c1)c1ccccc1` [WX012], for which, in assay [1], the Emax turned out to be 103% and the concentration giving a half-maximal response (EC50) worked out at 0.019 nM.
What is called IC50 is the point on the concentration scale where inhibition reaches its midpoint. Take `C[C@H](NC(=O)C(C)(F)F)[C@H](Oc1ccc2c(cnn2-c2ccc3nncn3c2)c1)c1ccccc1` [WX022]: the half-maximal inhibitory concentration (IC50) in assay [2] (absolute IC50, test Top concentration 1000 nM, read-out: hPBMC IC50) was determined as 2.42 nM. The compound further gave an Emax in assay [2] (maximum effect value, test Top concentration 1000 nM) of 90%. Moreover, in assay [1], the Emax was determined as 101% and the EC50 came to 1.59 nM.
For the compound `CC(C)[C@H](NC(=O)C(C)(F)F)[C@H](Oc1ccc2c(cnn2-c2ccc3nnnn3c2)c1)c1ccccc1` [WX024], in assay [3], the Emax came to 54.5% and the half-inhibitory concentration (IC50) was determined as 32.5 nM. Further, in assay [1], the Emax is 31.5% and the 50% effective concentration (EC50) turned out to be 78.2 nM.
For the compound `C[C@H](NC(=O)C(C)(F)F)[C@H](Oc1ccc2c(cnn2-c2ccn3cnnc3c2)c1)c1cc(F)cc(F)c1` [WX029], in assay [3], the Emax was determined as 93.8% and the concentration for half-maximal inhibition (IC50) stood at 13.9 nM. Further, in assay [1], the Emax amounted to 62.9% and the EC50 turned out to be 21.4 nM.
For the compound `C[C@H](NC(=O)C(C)(F)F)[C@H](Oc1ccc2c(cnn2-c2ccc3[nH]c(=O)oc3c2)c1)c1cc(F)cc(F)c1` [WX036], in assay [3], the Emax was determined as 92.8% and the IC50 was found to be 0.905 nM. Moreover, in assay [1], the Emax came out at 80.1% and the EC50 was 2.31 nM.
On to `Cc1nnc2ccc(-n3ncc4cc(O[C@H](c5cc(F)cc(F)c5)[C@H](C)NC(=O)C(C)(F)F)ccc43)cn12` [WX037], for which, in assay [3], the Emax was determined as 87.8% and the IC50 turned out to be 5.66 nM. In assay [1], the Emax was found to be 73% and the EC50 worked out at 12.6 nM.
For the compound `CC(C)[C@H](NC(=O)C(C)(F)F)[C@H](Oc1ccc2c(cnn2-c2cnn(C)c2)c1)c1cc(F)cc(F)c1` [WX042], in assay [3], the Emax was 89% and the IC50 amounted to 1.38 nM. In assay [1], the Emax was determined as 43.5% and the concentration for a half-maximal effect (EC50) came to 3.06 nM.
For `CC(C)[C@H](NC(=O)C(C)(F)F)[C@H](Oc1ccc2c(cnn2-c2cnn(C)c2)c1)c1ccccc1` [WX045], in that order: 73.6%, 6.74 nM, 55.6% and 12.9 nM.
For `C[C@H](NC(=O)C(C)(F)F)[C@H](Oc1ccc2c(cnn2-c2cscn2)c1)c1ccccc1` [WX052], in that order: 92.5%, 0.97 nM, 57.8% and 3.37 nM.
